We go through 20 compounds from US11034725B2, “Compositions and methods for treating cardiovascular disease” (Genentech, Inc., priority 2016, dated 2021).

Numbered stars: 1 amine (or outer) side, 2 acyl side, 3 side chain; on linkers, the order of the positions; unused ones are H or OH. Square brackets hold non-standard residues; d marks the D form. Peptide text beside a SMILES is read from it. * marks the point of attachment. Propanoyl(3-indol-3-yl) = O=C(CCc1c[nH]c2ccccc12)*; Butyryl(4-indol-3-yl) = O=C(CCCc1c[nH]c2ccccc12)*; Propanoyl(3-(4-F-phenyl)) = O=C(CCc1ccc(F)cc1)*; Propanoyl(3-(4-MeO-Ph)) = COc1ccc(CCC(=O)*)cc1; Propanoyl(3-(4-Cl-Ph)) = O=C(CCc1ccc(Cl)cc1)*; X1 = O=C([C@H]1CC[C@@H](c2ccccc2)CC1)*; Butanoyl(4-OPh) = O=C(CCCOc1ccccc1)*; hArg = N=C(N)NCCCC[C@H](N)C(=O)O; X36 = CC(=O)c1ccc(OCCC(=O)*)cc1; X28 = COc1cc(OCCCC(=O)*)ccc1CO; Suc = O=C(CCC(=O)[*:2])[*:1]; X11 = O=C(CCCOc1ccc(Br)cc1)*; X18 = COc1ccc(OCCC(=O)*)cc1; X31 = Cc1ccc(OCCCC(=O)*)cc1; X7 = CCc1ccc(OCCCC(=O)*)cc1; X12 = O=C(CCCc1ccc(F)cc1)*; X15 = COc1cccc(CCC(=O)*)c1; Morpholide = C1CN(*)CCO1; X27 = O=C(CCCN1CCOCC1)*; Pentanoyl = CCCCC(=O)* Some results are limits rather than exact numbers.

For assay [1], the target named is PCSK9 (Homo sapiens, UniProt Q8NBP7). The assay can be described thus: PCSK9/EGF(A) TR-FRET binding assay. As to conditions: TR-FRET; Table 8E, additional compounds; read-out: PCSK9/EGF(A) IC50. Background: Time-resolved FRET reads energy transfer from a long-lived donor to a nearby acceptor.
Chain of PCSK9 (Q8NBP7 153-692): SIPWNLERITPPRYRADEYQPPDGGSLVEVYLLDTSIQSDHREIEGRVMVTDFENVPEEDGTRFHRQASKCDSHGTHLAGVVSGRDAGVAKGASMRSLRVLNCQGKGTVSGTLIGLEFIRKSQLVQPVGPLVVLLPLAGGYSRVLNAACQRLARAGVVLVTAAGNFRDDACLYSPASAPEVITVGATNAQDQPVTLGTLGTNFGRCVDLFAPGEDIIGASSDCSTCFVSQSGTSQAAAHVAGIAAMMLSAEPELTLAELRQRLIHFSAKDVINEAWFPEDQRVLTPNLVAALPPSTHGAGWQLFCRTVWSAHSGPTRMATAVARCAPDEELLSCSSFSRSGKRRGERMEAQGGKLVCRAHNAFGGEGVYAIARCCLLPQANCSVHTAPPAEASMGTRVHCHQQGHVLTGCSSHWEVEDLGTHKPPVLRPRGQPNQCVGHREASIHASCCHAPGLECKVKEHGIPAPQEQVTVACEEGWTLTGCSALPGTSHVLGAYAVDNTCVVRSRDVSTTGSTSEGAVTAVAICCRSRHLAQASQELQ
Chain of PCSK9 (Q8NBP7 31-152 partner limits assumed): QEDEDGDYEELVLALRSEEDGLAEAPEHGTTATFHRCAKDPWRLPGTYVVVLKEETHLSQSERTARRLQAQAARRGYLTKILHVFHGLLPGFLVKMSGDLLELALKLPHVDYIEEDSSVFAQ
Assay [2] has as its target T1, PCSK9Δhelix (Homo sapiens, UniProt Q8NBP7).
T1 construct: Human PCSK9 construct M1-Q692 with an engineered TEV site (residue deletion Y166, R167); made in house; host or cells: CHO
The assay is described as follows: PCSK9Δhelix/Ab20 TR-FRET binding assay. As to conditions: TR-FRET; Table 8E, additional compounds; read-out: PCSK9Δhelix/Ab20 IC50.

T1 sequence (Q8NBP7 with tags, fused parts or gaps limits assumed): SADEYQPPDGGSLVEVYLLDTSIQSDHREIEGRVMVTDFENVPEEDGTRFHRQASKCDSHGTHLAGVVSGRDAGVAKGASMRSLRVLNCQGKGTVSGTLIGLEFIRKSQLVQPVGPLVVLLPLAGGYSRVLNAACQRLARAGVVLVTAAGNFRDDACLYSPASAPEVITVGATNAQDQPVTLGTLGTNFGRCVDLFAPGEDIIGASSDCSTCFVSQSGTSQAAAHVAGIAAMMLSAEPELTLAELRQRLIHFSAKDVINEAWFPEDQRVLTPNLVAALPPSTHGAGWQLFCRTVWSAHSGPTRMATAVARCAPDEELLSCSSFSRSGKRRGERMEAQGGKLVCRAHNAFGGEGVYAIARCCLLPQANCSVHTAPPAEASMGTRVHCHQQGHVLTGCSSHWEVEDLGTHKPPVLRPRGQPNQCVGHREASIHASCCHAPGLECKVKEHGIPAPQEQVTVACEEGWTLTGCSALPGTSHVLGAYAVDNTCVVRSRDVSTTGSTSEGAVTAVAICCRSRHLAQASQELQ
T1 sequence (Q8NBP7 31-152 partner limits assumed): as the sequence (Q8NBP7 31-152 partner limits assumed) above

Regarding `CC[C@H](C)[C@H](NC(=O)[C@H](CCCNC(=N)N)NC(=O)[C@@H](NC(=O)[C@H](CC(C)C)NC(=O)[C@H](CC(N)=O)NC(=O)[C@H](Cc1c[nH]c2ccccc12)NC(=O)CCc1c[nH]c2ccccc12)C(C)C)C(=O)NCC(=O)N[C@@H](CC(C)C)C(=O)N[C@H](C(=O)N[C@@H](CCCNC(=N)N)C(N)=O)[C@@H](C)O` [Compound 189] ({Propanoyl(3-indol-3-yl)}-WNLVRIGLTR-NH2), the IC50 worked out at 38 µM in assay [1] and 12 µM in assay [2].
The like results for `CC[C@H](C)[C@H](NC(=O)[C@H](CCCNC(=N)N)NC(=O)[C@@H](NC(=O)[C@H](CC(C)C)NC(=O)[C@H](CC(N)=O)NC(=O)[C@H](Cc1c[nH]c2ccccc12)NC(=O)CCCc1c[nH]c2ccccc12)C(C)C)C(=O)NCC(=O)N[C@@H](CC(C)C)C(=O)N[C@H](C(=O)N[C@@H](CCCNC(=N)N)C(N)=O)[C@@H](C)O` [Compound 190] ({Butyryl(4-indol-3-yl)}-WNLVRIGLTR-NH2) were, in that order, 30 µM and 7 µM.
The like results for `CCCCC(=O)N[C@@H](Cc1c[nH]c2ccccc12)C(=O)N[C@@H](CC(N)=O)C(=O)N[C@@H](CC(C)C)C(=O)N[C@H](C(=O)N[C@@H](CCCCNC(=N)N)C(=O)N[C@H](C(=O)NCC(=O)N[C@@H](CC(C)C)C(=O)N[C@@H](CC(C)C)C(=O)N[C@@H](CCCNC(=N)N)C(N)=O)[C@@H](C)CC)C(C)C` [Compound 191, n-BuC(O)-WNLV(homoR)IGLLR-NH2] (Pentanoyl-WNLV[hArg]IGLLR-NH2) were, in that order, ≥ 50 µM and 1.3 µM.
Take `CC[C@H](C)[C@H](NC(=O)[C@H](CCCCNC(=N)N)NC(=O)[C@@H](NC(=O)[C@H](CC(C)C)NC(=O)[C@H](CC(N)=O)NC(=O)[C@H](Cc1c[nH]c2ccccc12)NC(=O)CCCN1CCOCC1)C(C)C)C(=O)NCC(=O)N[C@@H](CC(C)C)C(=O)N[C@@H](CC(C)C)C(=O)N[C@@H](CCCNC(=N)N)C(N)=O` [Compound 193] (X27-WNLV[hArg]IGLLR-NH2): the IC50 in assay [1] is ≥ 50 µM; in assay [2], 1.5 µM.
The like results for `CC[C@H](C)[C@H](NC(=O)[C@H](CCCCNC(=N)N)NC(=O)[C@@H](NC(=O)[C@H](CC(C)C)NC(=O)[C@H](CC(N)=O)NC(=O)[C@H](Cc1c[nH]c2ccccc12)NC(=O)CCC(=O)N1CCOCC1)C(C)C)C(=O)NCC(=O)N[C@@H](CC(C)C)C(=O)N[C@@H](CC(C)C)C(=O)N[C@@H](CCCNC(=N)N)C(N)=O` [Compound 194] ({Morpholide-Suc}-WNLV[hArg]IGLLR-NH2) were, in that order, ≥ 50 µM and 1.9 µM.
`CC[C@H](C)[C@H](NC(=O)[C@H](CCCCNC(=N)N)NC(=O)[C@@H](NC(=O)[C@H](CC(C)C)NC(=O)[C@H](CC(N)=O)NC(=O)[C@H](Cc1c[nH]c2ccccc12)NC(=O)CCCc1ccc(F)cc1)C(C)C)C(=O)NCC(=O)N[C@@H](CC(C)C)C(=O)N[C@@H](CC(C)C)C(=O)N[C@@H](CCCNC(=N)N)C(N)=O` [Compound 196] (X12-WNLV[hArg]IGLLR-NH2): the figures for the IC50 in assay [1] and in assay [2] were 7.3 µM and 1.4 µM, respectively.
The like results for `CC[C@H](C)[C@H](NC(=O)[C@H](CCCCNC(=N)N)NC(=O)[C@@H](NC(=O)[C@H](CC(C)C)NC(=O)[C@H](CC(N)=O)NC(=O)[C@H](Cc1c[nH]c2ccccc12)NC(=O)CCc1ccc(OC)cc1)C(C)C)C(=O)NCC(=O)N[C@@H](CC(C)C)C(=O)N[C@@H](CC(C)C)C(=O)N[C@@H](CCCNC(=N)N)C(N)=O` [Compound 197] ({Propanoyl(3-(4-MeO-Ph))}-WNLV[hArg]IGLLR-NH2) were, in that order, 0.97 µM and 0.09 µM.
In the same order, the values of `CC[C@H](C)[C@H](NC(=O)[C@H](CCCCNC(=N)N)NC(=O)[C@@H](NC(=O)[C@H](CC(C)C)NC(=O)[C@H](CC(N)=O)NC(=O)[C@H](Cc1c[nH]c2ccccc12)NC(=O)CCc1ccc(F)cc1)C(C)C)C(=O)NCC(=O)N[C@@H](CC(C)C)C(=O)N[C@@H](CC(C)C)C(=O)N[C@@H](CCCNC(=N)N)C(N)=O` [Compound 198] ({Propanoyl(3-(4-F-phenyl))}-WNLV[hArg]IGLLR-NH2) are 1.7 µM and 0.25 µM.
The like results for `CC[C@H](C)[C@H](NC(=O)[C@H](CCCCNC(=N)N)NC(=O)[C@@H](NC(=O)[C@H](CC(C)C)NC(=O)[C@H](CC(N)=O)NC(=O)[C@H](Cc1c[nH]c2ccccc12)NC(=O)CCc1ccc(Cl)cc1)C(C)C)C(=O)NCC(=O)N[C@@H](CC(C)C)C(=O)N[C@@H](CC(C)C)C(=O)N[C@@H](CCCNC(=N)N)C(N)=O` [Compound 199] ({Propanoyl(3-(4-Cl-Ph))}-WNLV[hArg]IGLLR-NH2) were, in that order, 0.98 µM and 0.2 µM.
In the case of `CC[C@H](C)[C@H](NC(=O)[C@H](CCCCNC(=N)N)NC(=O)[C@@H](NC(=O)[C@H](CC(C)C)NC(=O)[C@H](CC(N)=O)NC(=O)[C@H](Cc1c[nH]c2ccccc12)NC(=O)CCCc1c[nH]c2ccccc12)C(C)C)C(=O)NCC(=O)N[C@@H](CC(C)C)C(=O)N[C@@H](CC(C)C)C(=O)N[C@@H](CCCNC(=N)N)C(N)=O` [Compound 200] ({Butyryl(4-indol-3-yl)}-WNLV[hArg]IGLLR-NH2), the IC50 came to 3.2 µM in assay [1] and 0.67 µM in assay [2].
The like results for `CC[C@H](C)[C@H](NC(=O)[C@H](CCCCNC(=N)N)NC(=O)[C@@H](NC(=O)[C@H](CC(C)C)NC(=O)[C@H](CC(N)=O)NC(=O)[C@H](Cc1c[nH]c2ccccc12)NC(=O)CCc1c[nH]c2ccccc12)C(C)C)C(=O)NCC(=O)N[C@@H](CC(C)C)C(=O)N[C@@H](CC(C)C)C(=O)N[C@@H](CCCNC(=N)N)C(N)=O` [Compound 201] ({Propanoyl(3-indol-3-yl)}-WNLV[hArg]IGLLR-NH2) were, in that order, 3.9 µM and 1 µM.
The like results for `CC[C@H](C)[C@H](NC(=O)[C@H](CCCCNC(=N)N)NC(=O)[C@@H](NC(=O)[C@H](CC(C)C)NC(=O)[C@H](CC(N)=O)NC(=O)[C@H](Cc1c[nH]c2ccccc12)NC(=O)CCc1cccc(OC)c1)C(C)C)C(=O)NCC(=O)N[C@@H](CC(C)C)C(=O)N[C@@H](CC(C)C)C(=O)N[C@@H](CCCNC(=N)N)C(N)=O` [Compound 202] (X15-WNLV[hArg]IGLLR-NH2) were, in that order, 2.6 µM and 0.34 µM.
In the same order, the values of `CC[C@H](C)[C@H](NC(=O)[C@H](CCCCNC(=N)N)NC(=O)[C@@H](NC(=O)[C@H](CC(C)C)NC(=O)[C@H](CC(N)=O)NC(=O)[C@H](Cc1c[nH]c2ccccc12)NC(=O)CCOc1ccc(OC)cc1)C(C)C)C(=O)NCC(=O)N[C@@H](CC(C)C)C(=O)N[C@@H](CC(C)C)C(=O)N[C@@H](CCCNC(=N)N)C(N)=O` [Compound 203] (X18-WNLV[hArg]IGLLR-NH2) are 21 µM and 1.6 µM.
Regarding `CC[C@H](C)[C@H](NC(=O)[C@H](CCCCNC(=N)N)NC(=O)[C@@H](NC(=O)[C@H](CC(C)C)NC(=O)[C@H](CC(N)=O)NC(=O)[C@H](Cc1c[nH]c2ccccc12)NC(=O)CCCOc1ccc(CO)c(OC)c1)C(C)C)C(=O)NCC(=O)N[C@@H](CC(C)C)C(=O)N[C@@H](CC(C)C)C(=O)N[C@@H](CCCNC(=N)N)C(N)=O` [Compound 204] (X28-WNLV[hArg]IGLLR-NH2), the IC50 stood at 3.6 µM in assay [1] and 0.87 µM in assay [2].
For the compound `CC[C@H](C)[C@H](NC(=O)[C@H](CCCCNC(=N)N)NC(=O)[C@@H](NC(=O)[C@H](CC(C)C)NC(=O)[C@H](CC(N)=O)NC(=O)[C@H](Cc1c[nH]c2ccccc12)NC(=O)CCOc1ccc(C(C)=O)cc1)C(C)C)C(=O)NCC(=O)N[C@@H](CC(C)C)C(=O)N[C@@H](CC(C)C)C(=O)N[C@@H](CCCNC(=N)N)C(N)=O` [Compound 205] (X36-WNLV[hArg]IGLLR-NH2), the values for the IC50 in assay [1] and in assay [2] were 2.8 µM and 0.64 µM, respectively.
With `CC[C@H](C)[C@H](NC(=O)[C@H](CCCCNC(=N)N)NC(=O)[C@@H](NC(=O)[C@H](CC(C)C)NC(=O)[C@H](CC(N)=O)NC(=O)[C@H](Cc1c[nH]c2ccccc12)NC(=O)CCCOc1ccc(Br)cc1)C(C)C)C(=O)NCC(=O)N[C@@H](CC(C)C)C(=O)N[C@@H](CC(C)C)C(=O)N[C@@H](CCCNC(=N)N)C(N)=O` [Compound 206] (X11-WNLV[hArg]IGLLR-NH2), the IC50 in assay [1] was 1.8 µM; in assay [2], 0.87 µM.
The like results for `CC[C@H](C)[C@H](NC(=O)[C@H](CCCCNC(=N)N)NC(=O)[C@@H](NC(=O)[C@H](CC(C)C)NC(=O)[C@H](CC(N)=O)NC(=O)[C@H](Cc1c[nH]c2ccccc12)NC(=O)CCCOc1ccc(C)cc1)C(C)C)C(=O)NCC(=O)N[C@@H](CC(C)C)C(=O)N[C@@H](CC(C)C)C(=O)N[C@@H](CCCNC(=N)N)C(N)=O` [Compound 207] (X31-WNLV[hArg]IGLLR-NH2) were, in that order, 1.3 µM and 0.32 µM.
Turning to `CC[C@H](C)[C@H](NC(=O)[C@H](CCCCNC(=N)N)NC(=O)[C@@H](NC(=O)[C@H](CC(C)C)NC(=O)[C@H](CC(N)=O)NC(=O)[C@H](Cc1c[nH]c2ccccc12)NC(=O)[C@H]1CC[C@@H](c2ccccc2)CC1)C(C)C)C(=O)NCC(=O)N[C@@H](CC(C)C)C(=O)N[C@@H](CC(C)C)C(=O)N[C@@H](CCCNC(=N)N)C(N)=O` [Compound 208] (X1-WNLV[hArg]IGLLR-NH2), the values for the IC50 in assay [1] and in assay [2] were 0.45 µM and 0.1 µM, respectively.
In the same order, the values of `CC[C@H](C)[C@H](NC(=O)[C@H](CCCCNC(=N)N)NC(=O)[C@@H](NC(=O)[C@H](CC(C)C)NC(=O)[C@H](CC(N)=O)NC(=O)[C@H](Cc1c[nH]c2ccccc12)NC(=O)CCCOc1ccccc1)C(C)C)C(=O)NCC(=O)N[C@@H](CC(C)C)C(=O)N[C@@H](CC(C)C)C(=O)N[C@@H](CCCNC(=N)N)C(N)=O` [Compound 209] ({Butanoyl(4-OPh)}-WNLV[hArg]IGLLR-NH2) are 2.9 µM and 0.45 µM.
For `CCc1ccc(OCCCC(=O)N[C@@H](Cc2c[nH]c3ccccc23)C(=O)N[C@@H](CC(N)=O)C(=O)N[C@@H](CC(C)C)C(=O)N[C@H](C(=O)N[C@@H](CCCCNC(=N)N)C(=O)N[C@H](C(=O)NCC(=O)N[C@@H](CC(C)C)C(=O)N[C@@H](CC(C)C)C(=O)N[C@@H](CCCNC(=N)N)C(N)=O)[C@@H](C)CC)C(C)C)cc1` [Compound 210] (X7-WNLV[hArg]IGLLR-NH2), the IC50 in assay [1] is 3 µM; in assay [2], 0.84 µM.
